Results on ten substances are retold here after article PMC5751205, “Rapid Non-Enzymatic Glycation of the Insulin Receptor under Hyperglycemic Conditions Inhibits Insulin Binding In Vitro: Implications for Insulin Resistance” (International Journal of Molecular Sciences, 2017).

Where two headings read alike, the source gives them in different places. No end group written: not given here.

Assay [1] concerns the target T1, insulin-HRP (Homo sapiens, UniProt P01308). As to the kind of experiment: Insulin-HRP binding to IR peptides (ELISA plate, ABTS read-out). The note with it: Ins-HRP at 10 nM, IR peptide in the absence of glycation. On the procedure:
(§1) Each peptide was held constant at 0.1 mg/mL in pH 7.4 phosphate-buffered saline, and 100 μL aliquots were pipetted into rows of a Costar high-binding ELISA plate and incubated for an hour. The plate was washed 3× with 0.1% Tween 20 (Sigma-Aldrich) in 0.05 M phosphate buffered saline (PBS). Two hundred µL 2% polyvinyl alcohol in PBS were added to each well and incubated 1 h. The plates were then washed 3× again with 0.1% Tween 20. A solution of insulin conjugated to horse-radish peroxidase (HRP), 0.83 µg in 1.0 mL PBS, was made and serially diluted with PBS by thirds, ten times. These serial dilutions were added to the plate wells, incubated for an hour, and then washed 3× as before. Finally, 100 µL of stock ABTS [2,2′-azino-bis(3-ethylbenzothiazoline-6-sulphonic acid)] (Millipore, Burlington, MA, USA) was added to each well, incubated for thirty minutes, and the plate was then read on a SpectraMax Plus scanning microplate spectrophotometer at 405 nm. Controls wells lacking peptide but with PVA, INS-HRP and ABTS measured non-specific binding that was subtracted from the absorbance values of the rest of the wells. All experiments were run in triplicate and the averages of the corrected absorbances were then plotted against the concentration of the INS–HRP for each peptide to yield binding curves. Because binding curves are calculated by plotting differences, it was not possible to incorporate error bars into these curves.

The conditions of assay [2]: ref [41],[42], cited from earlier work. The procedure: Table 1 Table summarizing experiments to identify motifs determining insulin-receptor (IR) peptide glycation and whether glycation of IR peptides results in inhibition of insulin binding to these peptides. Specifically, this table provides binding constants glucose binding non-covalently to various insulin receptor (IR) peptides; glycation of the same IR peptides at 20 mM glucose for six days; the | column: Glucose Binding Kd (mM)

The target in assay [3] is T1, insulin-HRP. The experiment in a line: Effect of glycation on insulin-HRP binding to IR peptides. The note with it: for Change of INS-HRP binding to the peptide after glycation: 6-day exposure to 20 mM glucose, triplicate, averaged; for Ins-HRP Binding Inhibition (Glycated): change in Ins-HRP binding at 10 nM after exposure of the peptide to glycating conditions (six days at 20 mM glucose). On the procedure: Insulin receptor peptides (Figure 1) were synthesized by RS Synthesis (Louisville, KY, USA) to at least 95% purity by high pressure liquid chromatography (HPLC) and mass spectrometry. Peptides or recombinant human insulin (rHu) (Lilly, Indianapolis, IN, USA) were dissolved in glucose-free, phenol-red-free, Dulbecco’s modified Eagle growth medium (DMEM) to 1 mg/mL. Stock 2.0 M D-glucose (Sigma-Aldrich, St. Louis, MO, USA) solutions were also made in DMEM. The peptide and glucose stocks were combined to yield final reaction solutions with peptides at 0.1 mg/mL and glucose at […]. Combinations were incubated at 36–38 °C for 1–6 days. Reactions were stopped and solutions were stored by freezing at −20 °C. Glycated peptides were desalted by centrifugal filtration through Ultrafree-MC 5 kda or Ultracel 3 kda filter units. Resulting retentate was resuspended in low ionic strength saline immediately before performing mass spectrometry.
as §1
The same technique just described in Section 4.3 was used to measure the effect of glycation on INS-HRP binding to IR peptides as above with one change: IR peptides were serially diluted instead of the INS-HRP, which was held constant. This methodological modification was made in order to reduce the amount of IR peptide required to obtain results. As in Section 4.3, each experiment was run in triplicate and the results averaged.

Assay [4] addresses insulin receptor (IR), intact recombinant, unglycated. As to the kind of experiment: Insulin binding to intact unglycated insulin receptor by UV spectroscopy. The note with it: one of two independent runs. On the procedure: (§2) Intact recombinant IR was obtained from Sigma-Aldrich (St. Louis, MO, USA) and utilized at 42.9 units/mL in phosphate buffered saline, pH 7.4 (PBS) or in PBS with 20 mM glucose added. PBS and 20 mM glucose solutions of IR were incubated for six days at 37 °C. An aliquot of each preparation was then subjected to centrifugal filtration and washing through Ultrafree-MC 5 kda or Ultracel 3 kda filter units. The resulting retentates were resuspended in PBS. In this way, identical preparations of unglycated IR and glycated IR were made in both PBS and in 20 mM gucose PBS. Microliter quantities of PBS buffer, or 20 mM glucose PBS, or human recombinant INS (Sigma-Aldrich, St. Louis, MO, USA) in PBS or 20 mM glucose PBS were then added serially to 100 µL of each of the four preparations of IR and to control wells containing only PBS or 20 mM glucose PBS. Experiments were carried out in a crystal 96-well plate and the serial combinations subjected to UV spectrophotometry to obtain their spectra. The spectra of the control wells were subtracted from the spectra of the experimental wells to yield expected values at each UV wavelength and differences between the controls and experimental values determined. […] Binding constants were determined from the concentration at which the binding curves inverted. […]

Assay [5] has as its system insulin receptor (IR), intact recombinant, glycated. The experiment in a line: Insulin binding to intact glycated insulin receptor by UV spectroscopy. To be noted: IR incubated six days at 37 °C in 20 mM glucose, measured as decrease in absorbance. On the procedure:
as §2

Setting [6] is: glucose binding non-covalently to the peptide, read-out: Glucose Binding Kd.

T1 sequence (P01308 90-110): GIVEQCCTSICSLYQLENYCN
T1 sequence (P01308 25-54): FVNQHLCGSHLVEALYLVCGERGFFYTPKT

Consider H-FRVYGLESLKDLF [91-103], for which, in assay [1], the “10 nM Ins-HRP Binding (Native)” value is listed as “YES”. The Kd in assay [2] (setting [6]) was 37 mM. Moreover, in assay [3], the “Change of INS-HRP binding to the peptide after glycation” value (“Change of INS-HRP binding” below) is “very significant loss of INS-HRP binding” and the “Ins-HRP Binding Inhibition (Glycated)” value is recorded as “YES”.

On to “HLYFGEVCPGMDIRNN [28-43, synthetic insulin receptor peptide, residues 28-43 of human IR (UniProt P06213)]”, for which, in assay [1], the “10 nM Ins-HRP Binding (Native)” value is “no”. Further, in assay [2] (setting [6]), the Kd was 50 mM. Also, the “Ins-HRP Binding Inhibition (Glycated)” value in assay [3] is “no”.

H-NLTVIRGSRLFFNY [105-118]: the “10 nM Ins-HRP Binding (Native)” value in assay [1] is on record as “YES”. The Kd in assay [2] (setting [6]) was 35 mM. For the same substance, in assay [3], the “Change of INS-HRP binding” value is “very significant loss of INS-HRP binding” and the “Ins-HRP Binding Inhibition (Glycated)” value is “YES”.

In the case of “GMDIRNNLTRLHELE [37-51, synthetic insulin receptor peptide, residues 37-51 of human IR (UniProt P06213)]”, the “10 nM Ins-HRP Binding (Native)” value in assay [1] is on record as “no”. In assay [2] (setting [6]), the equilibrium dissociation constant (Kd) was 40 mM. Further, the “Ins-HRP Binding Inhibition (Glycated)” value in assay [3] is given as “no”.

In the case of “KTFEDYLHNVVFV [730-742, synthetic insulin receptor peptide, residues 730-742 of human IR]”, the “10 nM Ins-HRP Binding (Native)” value in assay [1] is recorded as “no”. In addition, the Kd in assay [2] (setting [6]) is 60 mM. In addition, the “Ins-HRP Binding Inhibition (Glycated)” value in assay [3] is “no”.

Turning to H-TQGKLFFHYNPK [453-464], the “10 nM Ins-HRP Binding (Native)” value in assay [1] is reported as “no”. Further, the Kd in assay [2] (setting [6]) was 57 mM. The “Ins-HRP Binding Inhibition (Glycated)” value in assay [3] is “no”.

On to “Insulin: recombinant human insulin (Lilly for glycation; Sigma-Aldrich for IR binding)”, for which the Kd in assay [2] (setting [6]) is 0.25 mM; in assay [2] (glucose binding non-covalently, second of two values printed for insulin, read-out: Glucose Binding Kd (mM), second value), 30 mM. Further, the “Binding constant of unglycated INS for unglycated IR in 20 mM glucose” value in assay [4] (PBS pH 7.4 with 20 mM glucose) was 110 µg/mL of INS. Also, the “Binding constant of unglycated INS for unglycated IR in PBS” value in assay [4] (PBS pH 7.4 without glucose, concentration at which the binding curve inverted) is given as 70 µg/mL of INS. Further, the “Decrease in amount of INS binding due to glycation of the IR, in 20 mM glucose” value in assay [5] (binding in PBS with 20 mM glucose) is “one third”. Further, the “Decrease in amount of INS binding due to glycation of the IR, in PBS” value in assay [5] (binding in PBS without glucose) is “one third”.

Consider H-TIDWSRILDS [157-166], for which the “10 nM Ins-HRP Binding (Native)” value in assay [1] is “no”. For the same substance, in assay [2] (setting [6]), the Kd was 57 mM. The “Ins-HRP Binding Inhibition (Glycated)” value in assay [3] is reported as “no”.

Turning to “ESEDSQKHNQSEYEDS [689-705, synthetic insulin receptor peptide, residues 689-705 of human IR]”, the “10 nM Ins-HRP Binding (Native)” value in assay [1] is recorded as “no”. Further, in assay [2] (setting [6]), the Kd is 63 mM. For the same substance, the “Ins-HRP Binding Inhibition (Glycated)” value in assay [3] is “no”.

“ENCSVIEGHLQ [51-61, synthetic insulin receptor peptide, residues 51-61 of human IR, insulin-like]”: in assay [1], the “10 nM Ins-HRP Binding (Native)” value is “YES”. Also, the Kd in assay [2] (setting [6]) is 52 mM. Also, the “Insulin-HRP binding after incubation of the peptide in 200 mM glucose” value in assay [3] (200 mM glucose, six days) is on record as “nearly undetectable levels”. Moreover, in assay [3], the “Change of INS-HRP binding” value is “very significant loss of INS-HRP binding” and the “Ins-HRP Binding Inhibition (Glycated)” value is on record as “YES”. In addition, the “Factor by which glycation reduces the insulin-HRP binding constant” value in assay [3] (peptide incubated in 20 and 60 mM glucose over six days) is given as “approximately 2”.
